Experimental findings from patent publication US20230126310A1 (priority 2020, published 2023) are described below.

Structures are written as SMILES. pIC50: −log10 of the molar value. Where a name gives a salt, the structure may show the parent alone. Read-outs that look alike come from different tables or passages of the source.

The test system of the assay is SARS-CoV-2. The assay is described as follows: microbe, parasite or virus in culture. The note with it: Severe acute respiratory syndrome coronavirus 2, Caco-2, 48 h; for IC50: read-out: pIC50 (converted); for inhibition at 10 µM: read-out: % Inh. (% Inhibition of SARS-CoV-2).

Regarding `CCNC1=Nc2ccc(Cl)cc2C(C)(c2ccccc2)O1` (centres unmarked) [Etifoxine (hydrochloride)], the pIC50 was 5.03 and the IC50 was 9.33 µM.

For the compound `CS(=O)(=O)CCNCc1nc(-c2ccc3ncnc(Nc4ccc(OCc5cccc(F)c5)c(Cl)c4)c3c2)cs1` [GW-583340], the inhibition at 10 µM worked out at 60.1%.

On to `O=c1[nH]c2ccccc2n1C1CCN(CCOc2ccccc2)CC1` [oxiperomide], for which the inhibition at 10 µM is 77.9%.

As for `COC[C@H](NC(=O)c1cnc(C)s1)C(=O)N[C@@H](COC)C(=O)N[C@@H](Cc1ccccc1)C(=O)[C@@]1(C)CO1` [Oprozomib (ONX 0912), Oprozomib], the inhibition at 10 µM turned out to be 52.7%.

In the case of `CCCCCCCCCCCCCCCC[N+](C)(C)Cc1ccccc1` [Benzyldimethylhexadecylammonium chloride hydrate], the inhibition at 10 µM was found to be 57%.

`Clc1ccc(C(Cn2ccnc2)OCc2csc3c(Cl)cccc23)c(Cl)c1` (centres unmarked) [Sertaconazole nitrate]: the inhibition at 10 µM amounted to 88.9%.

Regarding `CCCCC(CC)CNC(=N)NC(=N)NCCCCCCNC(=N)NC(=N)NCC(CC)CCCC` (centres unmarked) [Alexidine dihydrochloride], the inhibition at 10 µM came out at 76.3%.

Take `Cc1ccccc1-n1c(CF)nc2ccc(N)cc2c1=O` [Afloqualone]: the inhibition at 10 µM was 50.1%.

Turning to `Clc1ccc(C(Cn2ccnc2)OCc2ccc(Sc3ccccc3)cc2)c(Cl)c1` (centres unmarked) [Fenticonazole nitrate], the inhibition at 10 µM is 105%.

On to `CNC(=O)c1cccc(-c2ccc3c(N4CCOC[C@@H]4C)nc(N4CCOC[C@@H]4C)nc3n2)c1` [Vistusertib (AZD2014), Vistusertib], for which the inhibition at 10 µM was found to be 112%.

With `Nc1ccc2cc3ccc(N)cc3nc2c1` [PROFLAVINE HEMISULFATE], the pIC50 was 4.57, the inhibition at 10 µM stood at 95.8% and the IC50 was 26.9 µM.

With `COc1cc2ncnc(Nc3ccc(F)c(Cl)c3)c2cc1NC(=O)/C=C/CN1CCCCC1` [Dacomitinib (PF299804, PF-00299804), Dacomitinib], the inhibition at 10 µM stood at 85.5%.

`CN1CCN(c2ccc(C(=O)Nc3n[nH]c4ccc(Cc5cc(F)cc(F)c5)cc34)c(NC3CCOCC3)c2)CC1` [Entrectinib (RXDX-101), Entrectinib]: the inhibition at 10 µM came out at 70%.

For the compound `C=CCNc1c(O)cc2c(O)c1C[C@@H](C)C[C@H](OC)[C@H](O)[C@@H](C)/C=C(\C)[C@H](OC(N)=O)[C@@H](OC)/C=C\C=C(/C)C(=O)N2` [Retaspimycin (Hydrochloride)], the inhibition at 10 µM came out at 74.7%.

With `COC(=O)C1=C(C)NC(C)=C(C(=O)O[C@H]2CCN(Cc3ccccc3)C2)[C@H]1c1cccc([N+](=O)[O-])c1` [Barnidipine HCl], the pIC50 is 4.61, the inhibition at 10 µM was determined as 83.5% and the IC50 is 24.5 µM.

Consider `N#C/C(=C1/SCC(c2ccccc2Cl)S1)n1ccnc1` (centres unmarked) [Lanoconazole], for which the inhibition at 10 µM stood at 70.7%.

For `COc1ccc(CCc2nc3cc(-c4c(C)noc4C)ccc3n2C[C@H](C)N2CCOCC2)cc1Cl` [SGC-CBP30], the inhibition at 10 µM is 59.2%.

On to `O=C1NCCN1CCN1CCC(c2cn(-c3ccc(F)cc3)c3ccc(Cl)cc23)CC1` [sertindole], for which the inhibition at 10 µM came out at 90.3%.

As to `NC(=O)NS(=O)(=O)c1ccc(N)cc1` [SULFACARBAMIDE], the inhibition at 10 µM is 58.1%.

For the compound `CC(=O)OCC(=O)[C@@]1(O)CC[C@H]2[C@@H]3CCC4=CC(=O)C=C[C@]4(C)[C@@]3(F)[C@@H](O)C[C@@]21C` [isoflupredone-acetate], the inhibition at 10 µM was found to be 80.6%.

Consider `CCN1C(=O)CNc2ncc(-c3ccc(-c4nc[nH]n4)nc3C)nc21` [CC-115], for which the inhibition at 10 µM worked out at 96.6%.

Turning to `C[C@]12CC[C@H](O)C[C@H]1CC[C@@H]1[C@@H]2C[C@@H](O)[C@]2(C)[C@@H](C3=CC(=O)OC3)CC[C@]12O` [Digoxigenin], the inhibition at 10 µM turned out to be 66.8%.

For `O=C(OCC(COC(=O)c1cccnc1)(COC(=O)c1cccnc1)COC(=O)c1cccnc1)c1cccnc1` [niceritrol], the inhibition at 10 µM was determined as 50.1%.

Turning to `O=C1NC(c2cccc([N+](=O)[O-])c2)=CCN1c1ccccc1O` [icilin], the inhibition at 10 µM came out at 55.1%.

For `CCN(CC)CCO[C@H]1CC[C@@]2(C)C(=CC[C@@H]3[C@@H]2CC[C@]2(C)C(=O)CC[C@@H]32)C1` [U-18666A], the inhibition at 10 µM came out at 77.4%.

For `CCc1cnn2c(NCc3ccc[n+]([O-])c3)cc(N3CCCC[C@H]3CCO)nc12` [Dinaciclib (SCH727965), Dinaciclib], the inhibition at 10 µM was determined as 79.4%.

As for `CN1C[C@H](CNC(=O)OCc2ccccc2)C[C@@H]2c3cccc4c3c(cn4C)C[C@H]21` [METERGOLINE], the inhibition at 10 µM is 54.6%.

As to `Nc1cc(C(F)(F)F)c(-c2nc(N3CCOCC3)nc(N3CCOCC3)n2)cn1` [Bimiralisib], the inhibition at 10 µM worked out at 97.2%.

With `C[C@@H](c1nc(-c2ccc(C#N)cc2)cs1)[C@](O)(Cn1cncn1)c1cc(F)ccc1F` [Isavuconazole], the inhibition at 10 µM was 92.8%.

With `C[N+](C)(C)CC(=O)O` [BETAINE HYDROCHLORIDE], the inhibition at 10 µM stood at 95.7%.

For `Cn1cnc2c1c(=O)[nH]c(=O)n2C` [THEOBROMINE], the inhibition at 10 µM was 52.4%.

For `Nc1nc(Cl)nc2c1ncn2[C@@H]1O[C@H](CO)[C@@H](O)[C@H]1O` [2-chloroadenosine], the inhibition at 10 µM stood at 72.5%.

On to `N[C@H](C(=O)O)c1ccc(O)cc1` [oxfenicine], for which the inhibition at 10 µM was 50.7%.

`Cn1c(NC[C@@H](N)Cc2ccccc2)nc(-c2ccncc2)c(-c2ccc3ccccc3c2)c1=O` [AMG-548]: the inhibition at 10 µM was 89%.

As for `O=C(Nc1ccc(OC(F)(F)F)cc1)c1sccc1NCc1ccnc2ccccc12` [OSI-930], the inhibition at 10 µM stood at 100%.

With `NC(=O)N1C(=O)/C(=C(\O)c2cccs2)c2cc(Cl)ccc21` [tenidap], the inhibition at 10 µM stood at 75.2%.

As for `C[C@@H]1CN(Cc2ccc(F)cc2)[C@@H](C)CN1C(=O)c1cc2c(C(=O)C(=O)N(C)C)cn(C)c2cc1Cl` [talmapimod], the pIC50 is 4.64, the inhibition at 10 µM came out at 92.3% and the IC50 was 22.9 µM.

Regarding `COC(=O)[C@H]1[C@H]2C[C@@H]3c4[nH]c5cc(OC)ccc5c4CCN3C[C@H]2C[C@@H](OC(=O)c2cc(OC)c(OC)c(OC)c2)[C@@H]1OC` [RESERPINE], the inhibition at 10 µM turned out to be 67.8%.

For the compound `O=C(NC1CCN(CCCCC2(C(=O)NCC(F)(F)F)c3ccccc3-c3ccccc32)CC1)c1ccccc1-c1ccc(C(F)(F)F)cc1` [Lomitapide], the inhibition at 10 µM was 77.4%.

For `CCN(CC)CCNc1ccc(CO)c2sc3ccccc3c(=O)c12` [Hycanthone], the inhibition at 10 µM is 60.2%.

Consider `C[C@]12CC[C@H](O)CC1=CC[C@@H]1[C@@H]2CC[C@]2(C)C(n3cnc4ccccc43)=CC[C@@H]12` [Galeterone (TOK-001), Galeterone], for which the inhibition at 10 µM was 69%.

Consider `COC(=O)C1=C(C)NC(C)=C(C(=O)OCCCN2CCC(c3ccccc3)(c3ccccc3)CC2)[C@@H]1c1cccc([N+](=O)[O-])c1` [dexniguldipine], for which the pIC50 is 4.45, the inhibition at 10 µM was determined as 97.6% and the IC50 was 35.5 µM.

As to `O=C(NO)c1cnc(N2CCN(S(=O)(=O)c3ccc4ccccc4c3)CC2)nc1` [R306465], the inhibition at 10 µM was determined as 57.3%.

Consider `Nc1ccccc1C(=O)O` [anthranilic-acid], for which the inhibition at 10 µM stood at 50%.
